The values that follow come from patent US20030027218A1, “PEPTIDES PROMOTING THE ACTIVATION OF LATENT TGF-BETA AND METHOD FOR SCREENING TGF-BETA ACTIVITY REGULATORS” (priority 1997, published 2003).

Assay [1] relates to bovine aortic endothelial cells (BAEC). Description: Degree of binding of 125I-LLTGF-β to bovine aortic endothelial cells (radioactivity). It is filed as cell-based. To be noted: test compound 100 μg/ml.
For assay [2], the system named is bovine capillary endothelial cells (BCEC). Description: Degree of binding of 125I-LLTGF-β to bovine capillary endothelial cells (radioactivity). The following applies: for Radioactivity (cpm), n = 4: BCEC, 2 ng/ml 125I-LLTGF-β, 4° C. 3 hours. In kind it is cell-based. Here is the method: LLTGF-β isolated and purified from human platelets by the method of Okada, et al. [Journal of Biochemistry, 106, 304 (1989)] was ^125I-labeled according to the chloramine T method [Molecular & Cellular Biology, 2, 599 (1982)] in the following manner.
To 2 μg of LLTGF-β were added 25 μl of 1 M K-phosphate buffer (pH 7.5), 37 MBq of Na-^125I (DuPont NEN) and 10 μl of chloramine-T (0.5 mg/100 μl in 0.05 MK-phos. buffer, Wako Pure Chemical Industries, Ltd.), followed by stirring at room temperature for 40 seconds. After 15 μl of Na2S2O5 (1 mg/100 μl in 0.05 M K-phos. buffer) was added, the mixture was stirred at room temperature for 5 seconds, followed by addition of 100 μl of an aqueous solution of tyrosine (1 mg/ml). The reaction mixture was applied to a Sephadex G25 column and the eluate was taken in 500 μl fractions. Each fraction was subjected to measurement of radioactivity using a γ-counter (ARC-2000, Aloka Co., Ltd.). The fractions containing labeled protein were selected for use in the experiment.
The cells to be used in the experiment were obtained according to the method of Sato, et al. [Journal of Cell Biology, 123, 1249 (1993)]. Bovine vascular smooth muscle cells (BSMC) and porcine vascular smooth muscle cells (PSMC) were isolated from bovine aorta and porcine aorta, respectively, and cultured by the explant method [Journal of Cell Biology, 50, 172 (1971)]. Bovine capillary endothelial cells (BCEC) were isolated from bovine adrenal capillary and cultured. Bovine aortic endothelial cells (BAEC) were isolated from bovine aortic and cultured.
The following procedure was carried out according to the method of Sato, et al. [Journal of Cell Biology, 123, 1249 (1993)].
BSMC, PSMC and BCEC isolated and cultured in the above-described manner were respectively put into 35 mm dishes in an amount of 4×10^4 cells/dish. On the next day, the medium was replaced by Dulbecco's Modified Eagle's Medium (DMEM, Nissui Pharmaceutical Co.) containing 0.1% bovine serum albumin (BSA), followed by incubation for 5 hours. After the cells were washed with 2 ml of phosphate-buffered saline containing 0.1 g/l each of MgCl2.6H2O and CaCl2 [hereinafter sometimes referred to as PBS(+); phosphate-buffered saline containing neither MgCl2.6H2O nor CaCl2 is referred to as PBS (−)], the medium was replaced by 1 ml of ice-cold DMEM containing 0.1% BSA, 2 ng/ml ^125I-LLTGF-β and a test compound, followed by incubation at 4° C. for 3 hours. […] After being washed three times with 2 ml of ice-cold PBS(+), the cells were lysed with 900 μl of 0.5% Triton X-100 (room temperature, 0.5-1 hour), and 800 μl of the lysate was subjected to measurement of radioactivity using a γ-counter.

The test system of a further assay is active TGF-β. Description: Determination of active TGF-β by luciferase assay (BCEC culture supernatant on MLEC carrying PAI-1 promoter luciferase). It is filed as cell-based, bovine. The following applies: BCEC incubated with test compound 24 hours. Here is the method:
The amount of active TGF-β was determined by measuring the luminescence of mink lung epithelial cells (MLEC) carrying the luciferase gene introduced downstream of the PAI-1 promoter by luciferase assay system (Promega) according to the method of Abe, et al. [Analytical Biochemistry, 216, 276 (1994)] as described below.
BCEC were cultured in a 24-well plate to make a confluent layer and then the medium was replaced by DMEM containing 0.1% BSA. After 6 hours, the cells were scraped reticulately with a comb and the remaining cells were washed with PBS (−) , followed by incubation in DMEM containing 0.1% BSA and a test compound for 24 hours. The resulting culture supernatant was taken as a sample. Six hours before the sampling of this culture supernatant, the above-mentioned MLEC were put into wells of a 96-well plate in an amount of 2.8×10^4 cells/well. After the cells were cultured in DMEM containing 10% fetal calf serum (FCS) for 6 hours, the medium was replaced by the above culture supernatant sample, followed by incubation for 16 hours. The cells were washed twice with PBS (−) and then subjected to measurement of active TGF-β concentration by lucuferase assay system.

Assay [3] has as its system bovine capillary endothelial cells (BCEC). Description: Migration of bovine vascular endothelial cells (release of active TGF-β from latent TGF-β). It is filed as cell-based. To be noted: 24 hours, 10 /μg/ml. On the procedure:
The following procedure was carried out according to the method of Sato, et al. [Journal of Cell Biology, 123, 1249 (1993)]. were scraped with a razor, the remaining cells were washed with PBS (−), followed by incubation in DMEM containing 0.1% BSA and a test compound. After 24 hours, the number of the cells which migrated in four fileds of a microscope (IX70, Olympus) was counted for each dish. The test compound was added in the same manner as in Test Example 1. The migration of cells was inhibited and the release of active TGF-β from latent TGF-β was promoted by Compounds 3 and 5 to 9 at a concentration of 50 μg/ml.

Where [4] appears, read: test compound 100 μg/ml, vehicle 416.8 ± 89.6.
[5] abbreviates: concentrations indicated in FIG. 6.

Positions of bridges follow the written chain, without caps; N, C: chain ends. *: point of attachment. Biotin = O=C1N[C@H]2[C@H](CS[C@H]2CCCCC(=O)*)N1

As for “Biotinyl-Gly-Arg-Arg-Leu-Lys-Leu-Lys-Val-Glu-Gln-His-Val-Glu-Leu-Tyr-Gln-Lys-Tyr-Ser-Asn-Asn-Ser-Trp-Arg-OH (Biotin-GRRLKLKVEQHVELYQKYSNNSWR-OH; SMILES CC(C)C[C@H](NC(=O)[C@H](CCCNC(=N)N)NC(=O)[C@H](CCCNC(=N)N)NC(=O)CNC(=O)CCCC[C@@H]1SC[C@@H]2NC(=O)N[C@@H]21)C(=O)N[C@@H](CCCCN)C(=O)N[C@@H](CC(C)C)C(=O)N[C@@H](CCCCN)C(=O)N[C@H](C(=O)N[C@@H](CCC(=O)O)C(=O)N[C@@H](CCC(N)=O)C(=O)N[C@@H](Cc1c[nH]cn1)C(=O)N[C@H](C(=O)N[C@@H](CCC(=O)O)C(=O)N[C@@H](CC(C)C)C(=O)N[C@@H](Cc1ccc(O)cc1)C(=O)N[C@@H](CCC(N)=O)C(=O)N[C@@H](CCCCN)C(=O)N[C@@H](Cc1ccc(O)cc1)C(=O)N[C@@H](CO)C(=O)N[C@@H](CC(N)=O)C(=O)N[C@@H](CC(N)=O)C(=O)N[C@@H](CO)C(=O)N[C@@H](Cc1c[nH]c2ccccc12)C(=O)N[C@@H](CCCNC(=N)N)C(=O)O)C(C)C)C(C)C) [Compound 16]”, the “Radioactivity (cpm), n = 4” value in assay [1] (Table 6, vehicle 792.0 ± 107.0) turned out to be 10495.0 ± 803.0 cpm. Regarding “Biotinyl-cyclo(Cys-Val-Leu-Leu-Ser-Arg-Ala-Glu-Leu-Arg-Leu-Leu-Arg-Arg-Leu-Lys-Leu-Lys-Cys)-OH (Biotin-CVLLSRAELRLLRRLKLKC-OH; disulfide 1-19; SMILES CC(C)C[C@@H]1NC(=O)[C@H](CCC(=O)O)NC(=O)[C@H](C)NC(=O)[C@H](CCCNC(=N)N)NC(=O)[C@H](CO)NC(=O)[C@H](CC(C)C)NC(=O)[C@H](CC(C)C)NC(=O)[C@H](C(C)C)NC(=O)[C@@H](NC(=O)CCCC[C@@H]2SC[C@@H]3NC(=O)N[C@@H]32)CSSC[C@@H](C(=O)O)NC(=O)[C@H](CCCCN)NC(=O)[C@H](CC(C)C)NC(=O)[C@H](CCCCN)NC(=O)[C@H](CC(C)C)NC(=O)[C@H](CCCNC(=N)N)NC(=O)[C@H](CCCNC(=N)N)NC(=O)[C@H](CC(C)C)NC(=O)[C@H](CC(C)C)NC(=O)[C@H](CCCNC(=N)N)NC1=O) [Compound 13]”, in assay [1] (Table 5, vehicle 1076.5 ± 12.0), the “Radioactivity (cpm), n = 4” value was 4704.0 ± 939.9 cpm.

Take “H-Leu-Lys-Leu-Lys-Val-Glu-Gln-His-Val-Glu-Leu-Tyr-Gln-Lys-Tyr-Ser-Asn-Asn-Ser-Trp-Arg-OH (H-LKLKVEQHVELYQKYSNNSWR-OH) [Compound 15]”: the “Radioactivity (cpm), n = 4” value in assay [2] (setting [4]) came to 5621.1 ± 889.2 cpm. For “H-Leu-Ser-Thr-Cys-Lys-Thr-Ile-Asp-Met-Glu-Leu-Val-Lys-Arg-Lys-Arg-OH (H-LSTCKTIDMELVKRKR-OH) [Compound 14]”, the “Radioactivity (cpm), n = 4” value in assay [2] (setting [4]) came out at 3369.9 ± 166.8 cpm. On to “H-Leu-Ser-Thr-Ser-Lys-Thr-Ile-Asp-Met-Glu-Leu-Val-Lys-Arg-Lys-Arg-Ile-Glu-Ala-Ile-Arg-Gly-Cys-OH (H-LSTSKTIDMELVKRKRIEAIRGC-OH) [Compound 3]”, for which the “release of active TGF-β (luciferase assay)” value in the assay with active TGF-β (setting [5]) is “Active TGF-β was released”. “H-cyclo(Cys-Leu-Ser-Thr-Ser-Lys-Thr-Ile-Asp-Met-Glu-Leu-Val-Lys-Arg-Lys-Arg-Ile-Glu-Ala-Ile-Arg-Gly-Cys)-OH (H-CLSTSKTIDMELVKRKRIEAIRGC-OH; disulfide 1-24; SMILES CC[C@H](C)[C@@H]1NC(=O)[C@H](C)NC(=O)[C@H](CCC(=O)O)NC(=O)[C@H]([C@@H](C)CC)NC(=O)[C@H](CCCNC(=N)N)NC(=O)[C@H](CCCCN)NC(=O)[C@H](CCCNC(=N)N)NC(=O)[C@H](CCCCN)NC(=O)[C@H](C(C)C)NC(=O)[C@H](CC(C)C)NC(=O)[C@H](CCC(=O)O)NC(=O)[C@H](CCSC)NC(=O)[C@H](CC(=O)O)NC(=O)[C@H]([C@@H](C)CC)NC(=O)[C@H]([C@@H](C)O)NC(=O)[C@H](CCCCN)NC(=O)[C@H](CO)NC(=O)[C@H]([C@@H](C)O)NC(=O)[C@H](CO)NC(=O)[C@H](CC(C)C)NC(=O)[C@@H](N)CSSC[C@@H](C(=O)O)NC(=O)CNC(=O)[C@H](CCCNC(=N)N)NC1=O) [Compound 10]”: the “release of active TGF-β (luciferase assay)” value is given as “remarkable effect” with active TGF-β (concentration of 10 μg/ml) and “Active TGF-β was released” in the assay with active TGF-β (setting [5]). In assay [3], the migration inhibitory effect entry is on record as “showed the migration inhibitory effect”. For the substance “H-cyclo(Cys-Val-Leu-Leu-Ser-Arg-Ala-Glu-Leu-Arg-Leu-Leu-Arg-Arg-Leu-Lys-Leu-Lys-Cys)-OH (H-CVLLSRAELRLLRRLKLKC-OH; disulfide 1-19; SMILES CC(C)C[C@@H]1NC(=O)[C@H](CCC(=O)O)NC(=O)[C@H](C)NC(=O)[C@H](CCCNC(=N)N)NC(=O)[C@H](CO)NC(=O)[C@H](CC(C)C)NC(=O)[C@H](CC(C)C)NC(=O)[C@H](C(C)C)NC(=O)[C@@H](N)CSSC[C@@H](C(=O)O)NC(=O)[C@H](CCCCN)NC(=O)[C@H](CC(C)C)NC(=O)[C@H](CCCCN)NC(=O)[C@H](CC(C)C)NC(=O)[C@H](CCCNC(=N)N)NC(=O)[C@H](CCCNC(=N)N)NC(=O)[C@H](CC(C)C)NC(=O)[C@H](CC(C)C)NC(=O)[C@H](CCCNC(=N)N)NC1=O) [Compound 12]”, in assay [2] (test compound 30 μg/ml, vehicle 163.1 ± 28.3), the “Radioactivity (cpm), n = 4” value was 2739.9 ± 182.8 cpm. For the same substance, in assay [2] (concentration of 30 μg/ml, BCEC (Table 3)), the “degree of binding of TGF-β to cells” value is given as “increased”.
